Laboratory results: ChEMBL document CHEMBL3885861, “Open TG-GATES”

Species on record: Rattus norvegicus
Assay: Open TG-GATES - Regimen: Daily Repeat
Type: toxicity, organism-based, Sprague-Dawley
Design: regimen Daily Repeat, gender Male, age 6 weeks
Conditions: in vivo, po, route gavage; for APTT / Bas / Eos / Fbg / Hb / Ht / Lym / MCH / MCHC / MCV / Mono / Neu / PT / Plat / RBC / Ret / WBC: tissue Blood; for KIDNEY_L / KIDNEY_R / KIDNEY_TOTAL: tissue Kidney; for LIVER: tissue Liver; for A/G / ALP / ALT / AST / BUN / CRE / Ca / Cl / DBIL / GLC / IP / K / LDH / Na / PL / RALB / TBIL / TC / TG / TP / gamma-GTP: tissue Plasma
[1] = 0 mg/kg, 72 h, dose level Control, time 3 day
[2] = 0 mg/kg, […], dose level Control, time 7 day
[3] = 0 mg/kg, […], dose level Control, time 14 day
[4] = 0 mg/kg, […], dose level Control, time 28 day
[5] = 100 mg/kg, 72 h, dose level Low, time 3 day
[6] = 100 mg/kg, […], dose level Low, time 7 day
[7] = 100 mg/kg, […], dose level Low, time 14 day
[8] = 100 mg/kg, […], dose level Low, time 28 day

## CC(S)C(=O)NCC(=O)O (centres undefined) [TIOPRONIN]
[1]
  TERMINAL_BW: 222.4 g
  APTT: 22.6 s
  Bas: 0%
  Eos: 1%
  Fbg: 300.2 mg/dL
  Hb: 13.5 g/dL
  Ht: 40.8%
  Lym: 81.6%
  MCH: 20.9 pg
  MCHC: 33.1%
  MCV: 63 fL
  Mono: 2.6%
  Neu: 14.2%
  PT: 15.7 s
  Plat: 112.4 x10_4/uL
  RBC: 647.2 x10_4/ul
  Ret: 6.8%
  WBC: 142.5 x10_2/uL
  KIDNEY_L: 1 g
  KIDNEY_R: 1 g
  KIDNEY_TOTAL: 2 g
  LIVER: 10.5 g
  A/G: 1.1
  ALP: 1395.4 IU/L
  ALT: 46.2 IU/L
  AST: 73.8 IU/L
  BUN: 17.4 mg/dL
  CRE: 0.2 mg/dL
  Ca: 10.5 mg/dL
  Cl: 106 meq/L
  DBIL: 0 mg/dL
  GLC: 202 mg/dL
  IP: 7.2 mg/dL
  K: 4.3 meq/L
  LDH: 188 IU/L
  Na: 140.8 meq/L
  PL: 137.6 mg/dL
  RALB: 2.9 g/dL
  TBIL: 0.004 mg/dL
  TC: 75 mg/dL
  TG: 86.6 mg/dL
  TP: 5.5 g/dL
  gamma-GTP: 1.6 IU/L
[2]
  TERMINAL_BW: 250.2 g
  APTT: 21.4 s
  Bas: 0%
  Eos: 0.8%
  Fbg: 311.2 mg/dL
  Hb: 13.8 g/dL
  Ht: 40.6%
  Lym: 83%
  MCH: 20.7 pg
  MCHC: 33.9%
  MCV: 61 fL
  Mono: 2%
  Neu: 13.4%
  PT: 15.4 s
  Plat: 118.9 x10_4/uL
  RBC: 667 x10_4/ul
  Ret: 5.6%
  WBC: 124.9 x10_2/uL
  KIDNEY_L: 1.1 g
  KIDNEY_R: 1.1 g
  KIDNEY_TOTAL: 2.2 g
  LIVER: 11.5 g
  A/G: 1.2
  ALP: 1704.2 IU/L
  ALT: 37.4 IU/L
  AST: 68.6 IU/L
  BUN: 18.8 mg/dL
  CRE: 0.2 mg/dL
  Ca: 10.7 mg/dL
  Cl: 107.2 meq/L
  DBIL: 0 mg/dL
  GLC: 191.8 mg/dL
  IP: 7.1 mg/dL
  K: 4.5 meq/L
  LDH: 146.4 IU/L
  Na: 141.6 meq/L
  PL: 158.6 mg/dL
  RALB: 3 g/dL
  TBIL: 0.004 mg/dL
  TC: 83.2 mg/dL
  TG: 107.2 mg/dL
  TP: 5.4 g/dL
  gamma-GTP: 1.8 IU/L
[3]
  TERMINAL_BW: 315.5 g
  APTT: 22.9 s
  Bas: 0%
  Eos: 1%
  Fbg: 299.2 mg/dL
  Hb: 14.1 g/dL
  Ht: 40.4%
  Lym: 82.6%
  MCH: 20.5 pg
  MCHC: 34.8%
  MCV: 58.9 fL
  Mono: 2.2%
  Neu: 14%
  PT: 15.6 s
  Plat: 118.7 x10_4/uL
  RBC: 686.8 x10_4/ul
  Ret: 5.3%
  WBC: 128.8 x10_2/uL
  KIDNEY_L: 1.2 g
  KIDNEY_R: 1.2 g
  KIDNEY_TOTAL: 2.4 g
  LIVER: 13.7 g
  A/G: 1.3
  ALP: 1485.6 IU/L
  ALT: 37 IU/L
  AST: 63.4 IU/L
  BUN: 19 mg/dL
  CRE: 0.2 mg/dL
  Ca: 10.3 mg/dL
  Cl: 105 meq/L
  DBIL: 0 mg/dL
  GLC: 205.8 mg/dL
  IP: 6.9 mg/dL
  K: 4.5 meq/L
  LDH: 157.8 IU/L
  Na: 139.2 meq/L
  PL: 135.6 mg/dL
  RALB: 3.1 g/dL
  TBIL: 0.006 mg/dL
  TC: 63.6 mg/dL
  TG: 135.6 mg/dL
  TP: 5.6 g/dL
  gamma-GTP: 2.6 IU/L
[4]
  TERMINAL_BW: 385.3 g
  APTT: 24.5 s
  Bas: 0%
  Eos: 1%
  Fbg: 305.6 mg/dL
  Hb: 15.3 g/dL
  Ht: 43.2%
  Lym: 81.8%
  MCH: 19.6 pg
  MCHC: 35.3%
  MCV: 55.5 fL
  Mono: 1.8%
  Neu: 14.2%
  PT: 16 s
  Plat: 91.2 x10_4/uL
  RBC: 778.2 x10_4/ul
  Ret: 2.8%
  WBC: 114.1 x10_2/uL
  KIDNEY_L: 1.3 g
  KIDNEY_R: 1.4 g
  KIDNEY_TOTAL: 2.7 g
  LIVER: 15.9 g
  A/G: 1.2
  ALP: 1102.4 IU/L
  ALT: 35 IU/L
  AST: 61.4 IU/L
  BUN: 19.2 mg/dL
  CRE: 0.2 mg/dL
  Ca: 10.8 mg/dL
  Cl: 106.8 meq/L
  DBIL: 0 mg/dL
  GLC: 202.6 mg/dL
  IP: 6.7 mg/dL
  K: 4.1 meq/L
  LDH: 152.6 IU/L
  Na: 143.2 meq/L
  PL: 151.4 mg/dL
  RALB: 3.3 g/dL
  TBIL: 0.01 mg/dL
  TC: 78.2 mg/dL
  TG: 135.4 mg/dL
  TP: 5.9 g/dL
  gamma-GTP: 2 IU/L
[5]
  TERMINAL_BW: 228.4 g
  APTT: 22 s
  Bas: 0%
  Eos: 1%
  Fbg: 299.8 mg/dL
  Hb: 13 g/dL
  Ht: 39.1%
  Lym: 77.8%
  MCH: 19.9 pg
  MCHC: 33.2%
  MCV: 60.1 fL
  Mono: 2.8%
  Neu: 17.8%
  PT: 15.6 s
  Plat: 120.9 x10_4/uL
  RBC: 652 x10_4/ul
  Ret: 6.7%
  WBC: 105.6 x10_2/uL
  KIDNEY_L: 1 g
  KIDNEY_R: 1 g
  KIDNEY_TOTAL: 2 g
  LIVER: 10.8 g
  A/G: 1.2
  ALP: 1580 IU/L
  ALT: 43.6 IU/L
  AST: 73.6 IU/L
  BUN: 17 mg/dL
  CRE: 0.2 mg/dL
  Ca: 10.6 mg/dL
  Cl: 106.4 meq/L
  DBIL: 0 mg/dL
  GLC: 189.4 mg/dL
  IP: 7.4 mg/dL
  K: 4.4 meq/L
  LDH: 165.2 IU/L
  Na: 140.8 meq/L
  PL: 139.8 mg/dL
  RALB: 3.1 g/dL
  TBIL: 0.008 mg/dL
  TC: 76.6 mg/dL
  TG: 107.2 mg/dL
  TP: 5.6 g/dL
  gamma-GTP: 1.6 IU/L
[6]
  TERMINAL_BW: 255.1 g
  APTT: 22.4 s
  Bas: 0%
  Eos: 0.8%
  Fbg: 305.8 mg/dL
  Hb: 13.5 g/dL
  Ht: 39.7%
  Lym: 79.2%
  MCH: 20.9 pg
  MCHC: 34.1%
  MCV: 61.4 fL
  Mono: 2.4%
  Neu: 16.4%
  PT: 15.8 s
  Plat: 125.6 x10_4/uL
  RBC: 647 x10_4/ul
  Ret: 6.1%
  WBC: 109.7 x10_2/uL
  KIDNEY_L: 1.1 g
  KIDNEY_R: 1.1 g
  KIDNEY_TOTAL: 2.2 g
  LIVER: 11.2 g
  A/G: 1.1
  ALP: 1665.2 IU/L
  ALT: 37.2 IU/L
  AST: 66.8 IU/L
  BUN: 16.8 mg/dL
  CRE: 0.1 mg/dL
  Ca: 10.6 mg/dL
  Cl: 107.4 meq/L
  DBIL: 0 mg/dL
  GLC: 189.8 mg/dL
  IP: 7.3 mg/dL
  K: 4.2 meq/L
  LDH: 146.2 IU/L
  Na: 141.8 meq/L
  PL: 139.4 mg/dL
  RALB: 3 g/dL
  TBIL: 0.002 mg/dL
  TC: 70.6 mg/dL
  TG: 103.2 mg/dL
  TP: 5.6 g/dL
  gamma-GTP: 2.2 IU/L
[7]
  TERMINAL_BW: 321.9 g
  APTT: 24.5 s
  Bas: 0%
  Eos: 1%
  Fbg: 297 mg/dL
  Hb: 14.3 g/dL
  Ht: 41.1%
  Lym: 80.2%
  MCH: 20.8 pg
  MCHC: 34.8%
  MCV: 59.9 fL
  Mono: 2.4%
  Neu: 15.4%
  PT: 15.6 s
  Plat: 116.6 x10_4/uL
  RBC: 686.2 x10_4/ul
  Ret: 5.6%
  WBC: 147.7 x10_2/uL
  KIDNEY_L: 1.2 g
  KIDNEY_R: 1.3 g
  KIDNEY_TOTAL: 2.5 g
  LIVER: 14.1 g
  A/G: 1.2
  ALP: 1412.8 IU/L
  ALT: 37.4 IU/L
  AST: 66.6 IU/L
  BUN: 18.2 mg/dL
  CRE: 0.2 mg/dL
  Ca: 10.4 mg/dL
  Cl: 107.4 meq/L
  DBIL: 0 mg/dL
  GLC: 199 mg/dL
  IP: 6.4 mg/dL
  K: 4.3 meq/L
  LDH: 135.6 IU/L
  Na: 141.6 meq/L
  PL: 134 mg/dL
  RALB: 3.1 g/dL
  TBIL: 0.006 mg/dL
  TC: 65.4 mg/dL
  TG: 121 mg/dL
  TP: 5.7 g/dL
  gamma-GTP: 2 IU/L
[8]
  TERMINAL_BW: 376.7 g
  APTT: 25.2 s
  Bas: 0%
  Eos: 1.2%
  Fbg: 325.8 mg/dL
  Hb: 15.2 g/dL
  Ht: 43.1%
  Lym: 80.6%
  MCH: 19.6 pg
  MCHC: 35.2%
  MCV: 55.6 fL
  Mono: 2.6%
  Neu: 14.6%
  PT: 15.9 s
  Plat: 94 x10_4/uL
  RBC: 775.4 x10_4/ul
  Ret: 2.8%
  WBC: 122.4 x10_2/uL
  KIDNEY_L: 1.3 g
  KIDNEY_R: 1.4 g
  KIDNEY_TOTAL: 2.7 g
  LIVER: 15.3 g
  A/G: 1.2
  ALP: 1019.8 IU/L
  ALT: 34.6 IU/L
  AST: 58.2 IU/L
  BUN: 19.2 mg/dL
  CRE: 0.2 mg/dL
  Ca: 10.8 mg/dL
  Cl: 106.8 meq/L
  DBIL: 0 mg/dL
  GLC: 191 mg/dL
  IP: 6.2 mg/dL
  K: 4 meq/L
  LDH: 115.8 IU/L
  Na: 142.8 meq/L
  PL: 142.4 mg/dL
  RALB: 3.2 g/dL
  TBIL: 0.008 mg/dL
  TC: 77.4 mg/dL
  TG: 136.4 mg/dL
  TP: 5.9 g/dL
  gamma-GTP: 1.6 IU/L
